The values that follow are results of earlier work, collected in patent publication US11033613B2, “Methods and compositions for treating cancer” (Memorial Sloan Kettering Cancer Center, priority 2015, dated 2021).

The test system of this series is CD4+ and CD8+ responses. The settings on record: according to data from preclinical and phase 1 studies.

SGQAYMFPNAPYLPSCLES [WT1-122A1 long]: the “stimulation of CD4+ and CD8+ responses” value is “stimulate both CD4+ and CD8+ responses”.
